Reference: patent US20130192322A1, “Plant Fertilizers Derived from Organic Nitrogen and Phosphorus Sources” (priority 2011, published 2013)

Tested on: Tomato (var. Pink Girl)
Experiment: Example 4: effect of enzymatically hydrolyzed protein and phytic acid on tomato growth in greenhouse mix
Type: in vivo
Method: Tomato (var. Pink Girl) were grown in a greenhouse mix (⅓ each of components, soil, peat moss and vermiculite). The treatments were arranged in randomized design with 3 replicates for each treatment. Seedlings were harvested and tops weighed forty six days after planting. Treatments included additions of phytic acid and protein hydrolyzate separately and in combination at different concentrations and applied to the soil and as foliar. First application, made two weeks after planting, was both as a foliar and to the soil (50 ml/plant). The second application, made two weeks following the first,) was both to soil (80 ml/plant) and as a foliar.

With O=P(O)(O)O[C@H]1[C@H](OP(=O)(O)O)[C@@H](OP(=O)(O)O)[C@H](OP(=O)(O)O)[C@@H](OP(=O)(O)O)[C@H]1OP(=O)(O)O [Phytic Acid, phytic acid] the “% of control” value (0.04% P2O5, Foliar) was 109%, the “Av. Top fresh wt. of plants” value (0.04% P2O5, Foliar) was 27.0 gm and the “% of control” value (0.04% P2O5, Soil application) was 109%. For the same molecule, the “Av. Top fresh wt. of plants” value (0.04% P2O5, Soil application) was 27.0 gm, the “% of control” value (0.1% P2O5, Foliar) was 107% and the “Av. Top fresh wt. of plants” value (0.1% P2O5, Foliar) was 26.3 gm. The “% of control” value (0.1% P2O5, Soil application) was 128% and the “Av. Top fresh wt. of plants” value (0.1% P2O5, Soil application) was 31.5 gm.
